The values that follow come from paper PMC8550792, “Evolution of kinase polypharmacology across HSP90 drug discovery” (Cell Chemical Biology, 2021).

What all share (test): biochemical
What all share (format): biochemical

In experiment [1] the target is T1, 382 unique human kinases (Homo sapiens, UniProt P22607, G697C).
T1 construct: purchased Reaction Biology (HotSpot contract assay)
To be noted: FGFR3 (G697C), 10 uM; for remaining activity at 10 µM: read-out: % Enzyme Activity (relative to DMSO controls).

Experiment [2] concerns the target T2, 382 unique human kinases (Homo sapiens, UniProt P22455, V550M).
T2 construct: purchased Reaction Biology (HotSpot contract assay)
Conditions: FGFR4 (V550M), 10 uM; for remaining activity at 10 µM: read-out: % Enzyme Activity (relative to DMSO controls).

Experiment [3] concerns the target T3, 382 unique human kinases (Homo sapiens, UniProt P51617).
T3 construct: purchased Reaction Biology (HotSpot contract assay)
To be noted: kinase IRAK1, compound 10 uM; for remaining activity at 10 µM: read-out: % Enzyme Activity (relative to DMSO controls).

Experiment [4] addresses T4, 382 unique human kinases (Homo sapiens, UniProt Q16288).
T4 construct: purchased Reaction Biology (HotSpot contract assay)
Conditions: TRKC, [ATP] 100 µM.

For experiment [5], the target named is T5, 382 unique human kinases (Homo sapiens, UniProt Q8N5S9).
T5 construct: purchased Reaction Biology (HotSpot contract assay)
Conditions: CAMKK1, 10 uM; for remaining activity at 10 µM: read-out: % Enzyme Activity (relative to DMSO controls).

The target in experiment [6] is T6, 382 unique human kinases (Homo sapiens, UniProt Q8N752).
T6 construct: purchased Reaction Biology (HotSpot contract assay)
T6 sequence (Q8N752 1-337): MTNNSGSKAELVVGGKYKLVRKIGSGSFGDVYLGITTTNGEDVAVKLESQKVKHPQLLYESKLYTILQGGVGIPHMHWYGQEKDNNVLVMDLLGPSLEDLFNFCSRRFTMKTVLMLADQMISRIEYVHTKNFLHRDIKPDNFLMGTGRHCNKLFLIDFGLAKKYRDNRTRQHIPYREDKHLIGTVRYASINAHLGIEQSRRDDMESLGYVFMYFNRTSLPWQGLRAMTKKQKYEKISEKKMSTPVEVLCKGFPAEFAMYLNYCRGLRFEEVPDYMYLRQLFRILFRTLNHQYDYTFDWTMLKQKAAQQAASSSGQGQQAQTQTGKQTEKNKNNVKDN
To be noted: CK1a1L, 10 uM; for remaining activity at 10 µM: read-out: % Enzyme Activity (relative to DMSO controls).

Experiment [7] concerns the target T7, 382 unique human kinases (Homo sapiens, UniProt P29323).
T7 construct: purchased Reaction Biology (HotSpot contract assay)
T7 sequence (P29323 19-1055): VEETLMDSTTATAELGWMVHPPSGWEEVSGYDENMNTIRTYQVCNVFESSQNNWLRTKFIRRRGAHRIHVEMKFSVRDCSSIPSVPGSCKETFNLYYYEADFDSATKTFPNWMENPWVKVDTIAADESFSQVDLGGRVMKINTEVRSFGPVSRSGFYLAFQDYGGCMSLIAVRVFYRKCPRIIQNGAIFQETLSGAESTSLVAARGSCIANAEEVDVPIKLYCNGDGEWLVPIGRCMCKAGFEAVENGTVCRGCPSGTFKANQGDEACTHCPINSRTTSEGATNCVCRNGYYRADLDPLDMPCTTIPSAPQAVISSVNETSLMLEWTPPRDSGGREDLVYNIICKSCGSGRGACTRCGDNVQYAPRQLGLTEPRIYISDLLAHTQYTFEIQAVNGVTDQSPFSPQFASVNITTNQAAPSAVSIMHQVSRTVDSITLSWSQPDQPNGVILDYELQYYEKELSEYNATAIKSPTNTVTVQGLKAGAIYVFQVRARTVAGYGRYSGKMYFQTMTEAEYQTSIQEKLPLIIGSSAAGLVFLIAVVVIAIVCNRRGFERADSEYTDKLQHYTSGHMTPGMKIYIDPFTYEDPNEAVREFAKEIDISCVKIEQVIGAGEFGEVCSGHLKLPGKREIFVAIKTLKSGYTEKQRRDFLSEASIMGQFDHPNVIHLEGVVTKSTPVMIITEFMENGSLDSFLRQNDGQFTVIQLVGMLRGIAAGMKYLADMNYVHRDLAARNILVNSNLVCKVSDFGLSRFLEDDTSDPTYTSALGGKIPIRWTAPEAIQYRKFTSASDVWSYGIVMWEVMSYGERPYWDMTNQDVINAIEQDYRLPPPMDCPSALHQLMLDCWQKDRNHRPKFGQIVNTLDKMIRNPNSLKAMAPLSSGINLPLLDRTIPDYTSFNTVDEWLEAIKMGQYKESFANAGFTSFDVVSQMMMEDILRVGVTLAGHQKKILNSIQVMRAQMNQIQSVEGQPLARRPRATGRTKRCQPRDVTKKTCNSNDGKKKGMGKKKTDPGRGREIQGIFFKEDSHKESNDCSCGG
To be noted: EPHB2, [ATP] 30 µM, compound 10 uM; for remaining activity at 10 µM: read-out: % Enzyme Activity (relative to DMSO controls).

[8] abbreviates: compound 10 uM, read-out: % Enzyme Activity (relative to DMSO controls).

T4 sequence (Q16288 32-839): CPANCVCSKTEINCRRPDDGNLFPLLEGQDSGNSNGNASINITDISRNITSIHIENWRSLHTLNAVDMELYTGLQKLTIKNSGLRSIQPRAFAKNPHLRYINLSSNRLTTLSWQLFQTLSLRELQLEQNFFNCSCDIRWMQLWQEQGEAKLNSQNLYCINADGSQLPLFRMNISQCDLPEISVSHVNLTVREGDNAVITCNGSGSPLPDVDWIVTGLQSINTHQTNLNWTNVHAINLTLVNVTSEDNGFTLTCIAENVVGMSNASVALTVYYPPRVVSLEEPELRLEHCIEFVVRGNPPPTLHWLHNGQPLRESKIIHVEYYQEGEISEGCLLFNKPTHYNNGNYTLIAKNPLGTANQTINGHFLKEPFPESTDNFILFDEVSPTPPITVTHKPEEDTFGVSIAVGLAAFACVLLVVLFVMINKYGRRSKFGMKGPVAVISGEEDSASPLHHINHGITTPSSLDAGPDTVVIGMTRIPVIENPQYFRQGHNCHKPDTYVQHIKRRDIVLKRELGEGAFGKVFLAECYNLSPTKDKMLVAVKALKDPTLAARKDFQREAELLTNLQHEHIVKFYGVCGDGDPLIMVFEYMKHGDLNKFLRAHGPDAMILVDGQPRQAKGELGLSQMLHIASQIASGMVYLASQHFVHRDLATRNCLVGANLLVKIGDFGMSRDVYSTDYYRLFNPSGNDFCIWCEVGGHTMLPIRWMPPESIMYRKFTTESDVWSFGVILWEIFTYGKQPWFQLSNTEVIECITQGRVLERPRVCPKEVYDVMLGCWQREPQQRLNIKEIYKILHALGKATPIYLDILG
T5 sequence (Q8N5S9 whole entry): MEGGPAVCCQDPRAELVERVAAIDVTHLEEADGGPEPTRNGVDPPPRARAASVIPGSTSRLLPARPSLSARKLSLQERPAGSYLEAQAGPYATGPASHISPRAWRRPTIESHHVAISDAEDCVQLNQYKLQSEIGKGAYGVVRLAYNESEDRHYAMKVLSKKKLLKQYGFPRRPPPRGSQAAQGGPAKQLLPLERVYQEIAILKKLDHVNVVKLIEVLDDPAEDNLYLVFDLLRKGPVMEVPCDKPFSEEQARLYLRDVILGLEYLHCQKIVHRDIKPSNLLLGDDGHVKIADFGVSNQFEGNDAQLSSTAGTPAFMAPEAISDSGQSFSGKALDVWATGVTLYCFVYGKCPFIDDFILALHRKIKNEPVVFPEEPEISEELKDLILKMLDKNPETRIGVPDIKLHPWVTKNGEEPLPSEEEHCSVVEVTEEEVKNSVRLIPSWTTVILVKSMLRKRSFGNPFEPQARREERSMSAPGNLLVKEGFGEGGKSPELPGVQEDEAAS
T2 sequence (P22455 22-802 V550M): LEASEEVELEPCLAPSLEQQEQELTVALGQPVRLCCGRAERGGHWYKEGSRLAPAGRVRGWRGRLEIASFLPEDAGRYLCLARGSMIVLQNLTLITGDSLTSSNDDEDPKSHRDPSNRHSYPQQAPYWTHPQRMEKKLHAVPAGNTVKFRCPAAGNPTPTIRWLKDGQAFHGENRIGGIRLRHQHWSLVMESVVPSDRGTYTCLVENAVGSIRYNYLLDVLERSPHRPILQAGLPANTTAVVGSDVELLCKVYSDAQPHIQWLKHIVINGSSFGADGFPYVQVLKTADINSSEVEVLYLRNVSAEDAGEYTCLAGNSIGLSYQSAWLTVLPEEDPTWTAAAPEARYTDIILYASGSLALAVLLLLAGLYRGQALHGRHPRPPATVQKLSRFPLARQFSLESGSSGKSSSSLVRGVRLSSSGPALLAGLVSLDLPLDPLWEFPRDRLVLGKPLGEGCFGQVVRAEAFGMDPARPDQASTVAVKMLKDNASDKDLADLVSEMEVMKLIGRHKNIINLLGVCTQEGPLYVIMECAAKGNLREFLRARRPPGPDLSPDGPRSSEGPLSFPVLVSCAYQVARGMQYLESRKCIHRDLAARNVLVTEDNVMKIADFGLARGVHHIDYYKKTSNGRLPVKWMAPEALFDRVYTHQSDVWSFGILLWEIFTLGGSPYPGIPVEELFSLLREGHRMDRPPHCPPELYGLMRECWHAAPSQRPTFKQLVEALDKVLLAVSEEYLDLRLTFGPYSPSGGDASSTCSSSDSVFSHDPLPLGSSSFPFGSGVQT
T1 sequence (P22607 23-806 G697C): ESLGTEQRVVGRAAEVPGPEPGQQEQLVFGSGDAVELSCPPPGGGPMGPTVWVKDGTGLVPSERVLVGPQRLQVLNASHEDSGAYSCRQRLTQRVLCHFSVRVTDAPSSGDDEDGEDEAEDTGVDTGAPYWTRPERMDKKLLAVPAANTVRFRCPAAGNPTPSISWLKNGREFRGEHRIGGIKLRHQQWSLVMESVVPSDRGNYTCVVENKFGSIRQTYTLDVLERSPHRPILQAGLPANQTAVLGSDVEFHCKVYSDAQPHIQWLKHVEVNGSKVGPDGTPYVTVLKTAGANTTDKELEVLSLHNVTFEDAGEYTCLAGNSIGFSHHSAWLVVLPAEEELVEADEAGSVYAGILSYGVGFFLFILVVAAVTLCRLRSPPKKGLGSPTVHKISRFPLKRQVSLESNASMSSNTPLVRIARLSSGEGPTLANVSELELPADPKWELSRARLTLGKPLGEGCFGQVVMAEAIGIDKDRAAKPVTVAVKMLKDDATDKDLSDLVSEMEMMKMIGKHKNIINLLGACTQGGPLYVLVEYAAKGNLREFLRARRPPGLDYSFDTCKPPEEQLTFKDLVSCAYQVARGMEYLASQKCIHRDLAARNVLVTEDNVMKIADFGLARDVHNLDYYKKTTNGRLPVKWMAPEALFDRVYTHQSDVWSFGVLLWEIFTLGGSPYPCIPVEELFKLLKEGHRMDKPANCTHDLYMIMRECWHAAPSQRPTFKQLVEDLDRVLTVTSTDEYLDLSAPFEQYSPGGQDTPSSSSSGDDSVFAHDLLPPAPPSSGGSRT
T3 sequence (P51617 whole entry): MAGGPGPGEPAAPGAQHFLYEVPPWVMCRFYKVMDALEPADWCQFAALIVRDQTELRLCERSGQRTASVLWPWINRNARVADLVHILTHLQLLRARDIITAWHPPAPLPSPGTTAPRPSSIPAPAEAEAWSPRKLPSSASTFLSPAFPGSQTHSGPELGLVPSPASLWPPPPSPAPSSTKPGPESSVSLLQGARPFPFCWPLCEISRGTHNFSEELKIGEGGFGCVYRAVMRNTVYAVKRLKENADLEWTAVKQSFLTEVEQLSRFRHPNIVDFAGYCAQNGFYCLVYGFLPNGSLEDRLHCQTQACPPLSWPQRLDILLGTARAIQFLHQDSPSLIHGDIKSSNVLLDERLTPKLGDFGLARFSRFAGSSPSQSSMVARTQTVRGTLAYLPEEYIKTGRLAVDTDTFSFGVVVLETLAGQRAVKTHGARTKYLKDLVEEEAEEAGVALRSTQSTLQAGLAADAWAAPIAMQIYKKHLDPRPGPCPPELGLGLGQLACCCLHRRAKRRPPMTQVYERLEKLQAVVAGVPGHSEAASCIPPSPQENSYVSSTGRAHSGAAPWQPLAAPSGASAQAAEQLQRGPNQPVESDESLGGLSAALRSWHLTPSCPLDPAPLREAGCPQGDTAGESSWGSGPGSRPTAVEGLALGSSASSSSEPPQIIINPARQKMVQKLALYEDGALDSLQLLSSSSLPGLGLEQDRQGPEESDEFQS

As to `CC(C)c1cc(-c2n[nH]c(=O)n2-c2ccc3c(ccn3C)c2)c(O)cc1O` [Ganetespib (STA9090)], the results for the remaining activity at 10 µM on 382 unique human kinases [1], on 382 unique human kinases [2] and on 382 unique human kinases [3] were 61.9%, 85.2% and 102%, respectively.
Regarding `CC(C)c1cc(-c2n[nH]c(=O)n2-c2ccc3c(ccn3C)c2)c(O)cc1O` [Ganetespib], the remaining activity at 1 µM on 382 unique human kinases [4] (compound 1 uM, read-out: % Enzyme Activity (relative to DMSO controls)) turned out to be 30.6%. The remaining activity at 10 µM turned out to be 7.62% at 382 unique human kinases [4] (setting [8]), 99% at 382 unique human kinases [5], 98.3% at 382 unique human kinases [6] and 45.3% on 382 unique human kinases [7].
Turning to `CCNC(=O)c1noc(-c2cc(C(C)C)c(O)cc2O)c1-c1ccc(CN2CCOCC2)cc1` [Luminespib (AUY-922)], the “% Enzyme Activity (relative to DMSO controls)” value at 382 unique human kinases [1] amounted to 102.74%; at 382 unique human kinases [2], 64.75%; on 382 unique human kinases [3] it was 104.17%. For the same compound, the remaining activity at 10 µM stood at 104% at 382 unique human kinases [1], 72.2% at 382 unique human kinases [2] and 105% on 382 unique human kinases [3].
Regarding `CCNC(=O)c1noc(-c2cc(C(C)C)c(O)cc2O)c1-c1ccc(CN2CCOCC2)cc1` [Luminespib], the “% Enzyme Activity (relative to DMSO controls)” value on 382 unique human kinases [4] (compound 10 uM) is 94.48%; on 382 unique human kinases [5], 103.58%; at 382 unique human kinases [6] it was 99.86%; at 382 unique human kinases [7] it was 61.81%. For the same compound, the remaining activity at 10 µM at 382 unique human kinases [4] (setting [8]) came to 96.8%; on 382 unique human kinases [5], 104%; at 382 unique human kinases [6], 100%; on 382 unique human kinases [7] it was 63.2%.
